In one test the target is T1, human A2B receptors (Homo sapiens, UniProt P29275).
T1 construct: expressed in transfected cells; host or cells: HEK-293
T1 sequence (P29275 1-332): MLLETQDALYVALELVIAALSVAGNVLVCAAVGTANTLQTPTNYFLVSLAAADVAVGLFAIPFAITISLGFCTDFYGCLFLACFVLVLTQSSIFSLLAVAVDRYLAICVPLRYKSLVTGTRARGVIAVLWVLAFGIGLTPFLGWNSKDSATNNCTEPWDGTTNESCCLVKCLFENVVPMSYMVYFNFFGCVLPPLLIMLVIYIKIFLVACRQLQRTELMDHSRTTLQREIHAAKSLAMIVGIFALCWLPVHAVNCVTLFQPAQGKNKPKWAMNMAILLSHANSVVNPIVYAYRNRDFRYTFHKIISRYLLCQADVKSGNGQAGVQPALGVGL
In words: Binding at human A2B receptors expressed in HEK-293 cells vs [3H]ZM241385. The conditions noted are these: for rA1/hA2B: ratio of Ki rat A1 to Ki human A2B. As to the method:
The plasmid was amplified in competent JM109 cells and plasmid DNA isolated using Wizard Megaprep columns (Promega Corp., Madison, WI).
Colonies were selected by growth of cells in 0.6 mg/mL G418. Transfected cells were maintained in DMEM supplemented with Hams F12 nutrient mixture (1/1), 10% newborn calf serum, 2 mM glutamine, and containing 50 IU/mL penicillin, 50 μg/mL streptomycin, and 0.2 mg/mL Geneticin (G418, Boehringer Mannheim, Indianapolis, IN).
Confluent monolayers of HEK-A2B cells were washed with PBS followed by ice-cold Buffer A (10 mM HEPES, 10 mM EDTA, pH 7.4) with protease inhibitors ([…] benzamidine, […], and […] of each aprotinin, pepstatin, and leupeptin). The cells were homogenized in a Polytron (Brinkmann) for 20 sec, centrifuged at 30,000g, and the pellets washed twice with buffer HE (10 mM HEPES, 1 mM EDTA, pH 7.4 with protease inhibitors). The final pellet was resuspended in buffer HE, supplemented with 10% sucrose and frozen in aliquots at −80°C. For binding assays, membranes were thawed and diluted 5–10-fold with HE to a final protein concentration of approximately 1 mg/mL. […] After incubating for 20 min at room temperature, 50 mL of 10 mg/mL Na-metabisulfite in water was added the quench the reaction. The reaction products were applied to a C18 HPLC column using 4 mM phosphate, pH 6.0/methanol. […] The incubation time was 3 h at 21°C. […] Membranes were filtered on Whatman GF/C filters using a Brandell cell harvester (Gaithersburg, MD) and washed three times over 15–20 sec with ice-cold buffer (10 mM Tris, 1 mM MgCl2, pH 7.4). […] Data from replicate experiments are tabulated as means ± SEM.
At A2B receptors, two radioligand binding assays (Table 1) were used. […] In order to evaluate selectivity, selected derivatives were subjected to standard binding assays at A1, A2A, and A3 receptors.

Another test deals with T2, rat A1 receptors (Rattus norvegicus, UniProt P25099).
T2 construct: to A1 receptors from rat cerebral cortical membranes; from tissue; host or cells: rat cerebral cortical membranes
T2 sequence (P25099 1-326): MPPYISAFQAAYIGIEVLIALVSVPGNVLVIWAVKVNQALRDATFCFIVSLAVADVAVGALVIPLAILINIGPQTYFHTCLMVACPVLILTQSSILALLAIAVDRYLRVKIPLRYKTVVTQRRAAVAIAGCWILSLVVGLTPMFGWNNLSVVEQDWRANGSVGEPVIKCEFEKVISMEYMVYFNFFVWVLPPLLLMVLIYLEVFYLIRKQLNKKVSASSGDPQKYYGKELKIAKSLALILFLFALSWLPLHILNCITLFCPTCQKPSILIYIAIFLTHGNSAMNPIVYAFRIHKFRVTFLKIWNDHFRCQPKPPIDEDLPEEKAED
Put plainly: Displacement of [3H]R-PIA binding to A1 receptors in rat brain membranes. As to conditions: read-out: Ki rA1. The procedure: (§1) All nonradioactive compounds were initially dissolved in DMSO and diluted with buffer to the final concentration, where the amount of DMSO never exceeded 2%. Incubations were terminated by rapid filtration over Whatman GF/B filters using a Brandell cell harvester. The tubes were rinsed three times with 3 mL buffer each.
(§2) At least six different concentrations of competitor, spanning 3 orders of magnitude adjusted appropriately for the IC50 value of each compound, were used. IC50 values, calculated with the nonlinear regression method implemented in Graph-Pad Prism (San Diego, CA) were converted to apparent Ki values as described by [Linden [1982]]. Hill coefficients of the tested compounds were in the range of 0.8–1.1.
(§3) At A2B receptors, two radioligand binding assays (Table 1) were used. Ki values of xanthine derivatives were determined in displacement of binding of the non-selective radioligands […], 8 (4-(2-[7-amino-2-{furyl}{1,2,4}triazolo{2,3-a}{1,3,5}tr nzyl)-8-phenyloxyacetate-1-propyl-xanthine), at human A2B receptors expressed in HEK-293 cell membranes [[Linden and Jacobson, 1998]]. In order to evaluate selectivity, selected derivatives were subjected to standard binding assays at A1, A2A, and A3 receptors. The initial screening utilized rat brain A1/A2A receptors (with radioligands [^3H]R-PIA and [^3H]CGS-21680), and selected compounds were examined at the recombinant human subtypes (Table 1), using [^3H]CPX ([^3H]8-cyclopentyl-1,3-dipropylxanthine) and ^125I-ZM 241385, ^125I-4-(2-[7-amino-2-[2-furyl][1,2,4]triazolo[2,3-a][1,3,5]triazin-5-yl-amino]ethyl)phenol) [[Palmer et al., 1996]].
For orientation: In a radioligand displacement assay an active substance lowers the binding of a labelled ligand.

In the next test the target is T3, human A3 receptors (Homo sapiens, UniProt P0DMS8).
T3 construct: expressed in transfected cells; host or cells: HEK-293
T3 sequence (P0DMS8 1-318): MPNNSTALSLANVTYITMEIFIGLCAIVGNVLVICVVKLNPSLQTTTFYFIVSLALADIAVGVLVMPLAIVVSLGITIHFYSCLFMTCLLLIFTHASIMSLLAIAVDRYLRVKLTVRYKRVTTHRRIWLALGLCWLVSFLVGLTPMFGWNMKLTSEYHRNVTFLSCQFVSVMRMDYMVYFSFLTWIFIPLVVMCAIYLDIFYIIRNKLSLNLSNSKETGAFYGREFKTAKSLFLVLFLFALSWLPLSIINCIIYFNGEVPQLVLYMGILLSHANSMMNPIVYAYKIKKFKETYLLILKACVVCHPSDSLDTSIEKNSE
In words: Displacement of [125I]AB-MECA binding at human A3 receptors expressed in HEK cells. The conditions noted are these: read-out: Ki hA3. The procedure: as §3

Another test deals with T4, rat A2A receptors (Rattus norvegicus, UniProt P30543).
T4 construct: to A2A receptors from rat striatal membranes; from tissue; host or cells: rat striatal membranes
In words: Displacement of [3H]CGS 21680 binding to A2A receptors in rat striatal membranes. As to conditions: read-out: Ki rA2A. As to the method: as §1, §2, §3

Setting [1] is: HEK-293 cells, vs [3H]ZM241385, read-out: Ki hA2B.
Setting [2] is: rounded values given in text, read-out: Ki at human A2B receptors.

The structures appear in SMILES notation. Where two headings read alike, the source gives them in different places.

T4 sequence (P30543 whole entry): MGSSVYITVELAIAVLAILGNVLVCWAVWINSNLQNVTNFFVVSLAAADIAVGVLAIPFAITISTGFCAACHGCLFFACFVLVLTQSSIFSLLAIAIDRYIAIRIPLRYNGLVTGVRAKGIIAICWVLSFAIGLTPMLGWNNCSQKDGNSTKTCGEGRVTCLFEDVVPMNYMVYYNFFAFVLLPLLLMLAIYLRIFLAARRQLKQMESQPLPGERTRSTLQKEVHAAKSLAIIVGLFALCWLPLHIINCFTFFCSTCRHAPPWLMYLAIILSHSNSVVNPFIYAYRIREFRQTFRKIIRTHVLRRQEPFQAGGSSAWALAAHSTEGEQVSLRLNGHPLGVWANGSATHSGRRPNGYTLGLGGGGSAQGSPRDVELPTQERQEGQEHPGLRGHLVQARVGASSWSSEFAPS

What is called Ki is the dissociation constant of the complex between target and ligand, obtained from inhibition or displacement. Take `CCCn1c(=O)c2[nH]c(-c3ccc(OCC(=O)NNC(=O)C4CC=CCC4C(=O)O)cc3)nc2n(CCC)c1=O` (stereo not drawn) [Compound 18a, 8-[4-[(Carboxymethyl)oxy]phenyl]-1,3-di-(n-propyl)xanthine N-[2-((1-Carboxy)-cis-4-cyclohexene)-carbonyl]hydrazide]: the Ki at human A2B receptors (setting [1]) stood at 51 ± 7 nM; on rat A1 receptors, 134 ± 19 nM; on human A3 receptors it was 1060 nM; on rat A2A receptors, 813 ± 299 nM. At human A2B receptors, the rA1/hA2B amounted to 2.6.
`CCCn1c(=O)c2[nH]c(-c3ccc(OCC(=O)NNC(=O)[C@H](CC(C)C)NC(=O)OC(C)(C)C)cc3)nc2n(CCC)c1=O` [Compound 25, 8-[4-[(Carboxymethyl)oxy]phenyl]-1,3-di-(n-propyl)xanthine N-(N-tert-Butoxycarbonyl-L-leucinyl)-hydrazide]: the Ki at human A2B receptors (setting [1]) was 47.5 ± 2.5 nM; on human A2B receptors (setting [2]) it was 48 nM; at rat A1 receptors, 197 ± 67 nM; on human A3 receptors, 195 ± 84 nM; on rat A2A receptors, 2750 nM. Moreover, the rA1/hA2B at human A2B receptors stood at 4.1.
Consider `CCCn1c(=O)c2[nH]c(-c3ccc(OCC(=O)NNC(=O)[C@H](CCC(=O)O)NC(=O)C(F)(F)F)cc3)nc2n(CCC)c1=O` [Compound 24a, 8-[4-[(Carboxymethyl)oxy]phenyl]-1,3-di-(n-propyl)xanthine N-[(4-Carboxy-(2S)-Trifluoroacetamido)-n-butanoyl]hydrazide], for which the Ki on human A2B receptors (setting [1]) was found to be 24.8 ± 7.3 nM; on human A2B receptors (setting [2]) it was 25 nM; on rat A1 receptors it was 70.8 ± 30.9 nM; on human A3 receptors, 430 ± 44 nM; at rat A2A receptors, 872 ± 412 nM. Besides, the rA1/hA2B on human A2B receptors was determined as 2.9.
For the molecule `CCCn1c(=O)c2[nH]c(-c3ccc(OCC(=O)NN4C(=O)C5=C(CCC5)C4=O)cc3)nc2n(CCC)c1=O` [Compound 19b, 8-[4-[(Carboxymethyl)oxy]phenyl]-1,3-di-(n-propyl)xanthine N,N-(1-Cyclopentene-1,2-dicarbonyl)-hydrazide], the Ki on human A2B receptors (setting [1]) is 21.5 ± 1.5 nM; on rat A1 receptors, 41.3 ± 6.4 nM; on human A3 receptors, 308 ± 88 nM; on rat A2A receptors, 1160 nM. The rA1/hA2B on human A2B receptors came to 1.9.
With `CCCn1c(=O)c2[nH]c(-c3ccc(OCC(=O)NNC(=O)C4=C(C(=O)O)CCC4)cc3)nc2n(CCC)c1=O` [Compound 19a, 8-[4-[(Carboxymethyl)oxy]phenyl]-1,3-di-(n-propyl)xanthine N-[2-((1-Carboxy)-1-cyclopentene)-carbonyl]hydrazide], the Ki at human A2B receptors (setting [1]) is 78.5 ± 20.5 nM; on rat A1 receptors, 81.7 ± 31.2 nM; at human A3 receptors, 1180 nM; at rat A2A receptors it was 708 ± 169 nM. Also, the rA1/hA2B at human A2B receptors came to 1.0.
Take `CCCn1c(=O)c2[nH]c(-c3ccc(OCC(=O)NN4C(=O)CCCC4=O)cc3)nc2n(CCC)c1=O` [Compound 22, 8-[4-[(Carboxymethyl)oxy]phenyl]-1,3-di-(n-propyl)xanthine N,N-Glutarylhydrazide]: the Ki on human A2B receptors (setting [1]) came to 22 ± 5.5 nM; at rat A1 receptors, 14 ± 2.3 nM; at human A3 receptors it was 200 ± 45 nM; at rat A2A receptors, 135 ± 39 nM. The rA1/hA2B at human A2B receptors came out at 0.6.
For `CCCn1c(=O)c2[nH]c(-c3ccc(OCC(=O)NN4C(=O)CC(O)CC4=O)cc3)nc2n(CCC)c1=O` [Compound 23, 8-[4-[(Carboxymethyl)oxy]phenyl]-1,3-di-(n-propyl)xanthine N,N-(3-Hydroxy)glutarylhydrazide], the Ki was 25.7 ± 5.5 nM on human A2B receptors (setting [1]), 41.2 ± 16.6 nM at rat A1 receptors, 290 ± 88 nM on human A3 receptors and 164 ± 61 nM on rat A2A receptors. Also, the rA1/hA2B on human A2B receptors is reported as 1.6.
As to `CCCn1c(=O)c2[nH]c(-c3ccc(OCC(=O)NN4C(=O)C[C@H](NC(=O)C(F)(F)F)C4=O)cc3)nc2n(CCC)c1=O` [Compound 11, 8-[4-[(Carboxymethyl)oxy]phenyl]-1,3-di-(n-propyl)xanthine N,N-[((2S)-Trifluoroacetamido)-succinyl]hydrazide], the Ki stood at 30.2 ± 0.5 nM at human A2B receptors (setting [1]); 30 nM on human A2B receptors (setting [2]); 74.3 ± 6.6 nM on rat A1 receptors; 1560 nM on human A3 receptors; 139 ± 32 nM at rat A2A receptors. Besides, the rA1/hA2B on human A2B receptors is reported as 2.5.
In the case of `CCCn1c(=O)c2nc(-c3ccc(OCC(=O)NN)cc3)[nH]c2n(CCC)c1=O` [Compound 4c], the results for the Ki at rat A1 receptors, at human A3 receptors and at rat A2A receptors were 16 ± 0.5 nM, 498 ± 139 nM and 63.8 ± 21.3 nM, respectively.
Turning to `CCCn1c(=O)c2[nH]c(-c3ccc(OCC(=O)NNC(=O)[C@H](CCSC)NC(=O)OC(C)(C)C)cc3)nc2n(CCC)c1=O` [Compound 26, 8-[4-[(Carboxymethyl)oxy]phenyl]-1,3-di-(n-propyl)xanthine N-(N-tert-Butoxycarbonyl-L-methionyl)-hydrazide], the Ki at human A2B receptors (setting [1]) turned out to be 39.7 ± 13.6 nM; at human A2B receptors (setting [2]), 40 nM; on rat A1 receptors, 113 ± 27 nM; on human A3 receptors, 690 ± 570 nM; at rat A2A receptors, 524 ± 285 nM. For the same molecule, on human A2B receptors, the rA1/hA2B turned out to be 2.8.
Consider `CCCn1c(=O)c2[nH]c(-c3ccc(OCC(=O)NN4C(=O)C5=C(CCCC5)C4=O)cc3)nc2n(CCC)c1=O` [Compound 20b, 8-[4-[(Carboxymethyl)oxy]phenyl]-1,3-di-(n-propyl)xanthine N,N-(3,4,5,6-Tetrahydrophthaloyl)-hydrazide], for which the Ki on human A2B receptors (setting [1]) is 35.8 ± 0.7 nM; at rat A1 receptors it was 61.9 ± 11.3 nM; on human A3 receptors, 245 ± 45 nM; on rat A2A receptors, 415 ± 157 nM. Also, the rA1/hA2B on human A2B receptors turned out to be 1.7.
In the case of `CCCn1c(=O)c2[nH]c(-c3ccc(OCC(=O)NN4C(=O)CCC(c5ccccc5)C4=O)cc3)nc2n(CCC)c1=O` (centres unmarked) [Compound 12, 8-[4-[(Carboxymethyl)oxy]phenyl]-1,3-di-(n-propyl)xanthine N,N-[(2-Phenyl)glutaryl]hydrazide], the Ki amounted to 3.86 ± 0.7 nM on human A2B receptors (setting [1]), 3.87 ± 1.2 nM at rat A1 receptors, 151 ± 99 nM at human A3 receptors and 21.4 ± 6.1 nM at rat A2A receptors. Besides, at human A2B receptors, the rA1/hA2B turned out to be 1.0.

Source of the values: PMC9196953 (Drug development research, 1999).
